Test results from patent US20240131168A1, “NAPHTHALENE RING-CONTAINING COMPOUND, PHARMACEUTICAL COMPOSITION CONTAINING SAME, AND USE THEREOF” (JIANGSU YAHONG MEDITECH CO., LTD., priority 2021, published 2024).

Legend:
Format in all cases: cell-based
TamR-MCF-7 = test: CellTiter-Glo cell proliferation inhibition, TamR-MCF-7; conditions: 144 h, TamR-MCF-7 (CTG), 6 days, starting concentration 10 μM; for inhibition at up to 10 µM: read-out: IH % max (maximum inhibition percentage)
Excerpt: (§1) 1. Cell line • (1) Breast cancer cell lines and their culture media: • MCF-7 (ATCC; Cat. No.: HTB-22), a Luminal A breast cancer cell; • TamR-MCF-7 (ATCC; Cat. No.: CRL-3435), a breast cancer cell; • MCF-7 ER^D538G: a Luminal A breast cancer cell obtained by constructing MCF-7 (ATCC; Cat. No.: HTB-22) using CRISPR-Cas9 gene editing technology; • MCF-7 ER^Y537S: a Luminal A breast cancer cell obtained by constructing MCF-7 (ATCC; Cat. No.: HTB-22) using CRISPR-Cas9 gene editing technology; • MDA-MB-231: (manufacturer: Nanjing CoBioer Biosciences Co., Ltd.), a triple-negative breast cancer cell; • MDA-MB-468: (manufacturer: Nanjing CoBioer Biosciences Co., Ltd.), a triple-negative breast cancer cell.
(§2) Herein, the culture medium of MCF-7, TamR-MCF-7, MCF-7 ER^D538G, and MCF-7 ER^Y537S was EMEM; • the culture medium of MDA-MB-231 and MDA-MB-468 was DMEM.
(§3) 2. Reagents • Culture medium EMEM (Gibco, 1964507) • Culture medium DMEM (Gibco, 12430-054) • Fetal bovine serum (Gibco, 10091148) • Penicillin-streptomycin double antibody (Gibco, S110JV) • DPBS (Gibco, 14190-144) • CellTiter-Glo® assay kit (Promega, G7573) • Trypsin (0.25%) (Gibco, 25200-056) • DMSO (Sigma, D2650)
(§4) 3. Instruments • Biosafety cabinet (AIRTECH, BSC-1300A II) • Automated cell counter (Life Technologies, countess II) • Multifunctional microplate reader (Biotek, H1FM) • Orbital shaker (Hangzhou Allsheng Instruments Co., Ltd., OS-100) • XLFIT 5.3 (Inforstack Shanghai Co., Ltd.)
(§5) For this test method, the following experiments were performed in a biosafety cabinet, with the specific steps as follows: • (1) Cells were inoculated in a 96-well plate. One day later, the previous culture medium was poured off, 5 mL of DPBS was added to wash the cells, and then DPBS was pipetted and discarded. An appropriate amount of trypsin was then added. The plate was digested in a 37° C., 5% CO2 cell incubator for about 2 to 5 minutes and then taken out. Anew corresponding culture medium was added, and pipetted up and down to resuspend the cells evenly. The cells were then counted using an automated cell counter. • (2) Each cell was inoculated in columns 1 to 11 of a 96-well plate (Corning, Cat. No.: 3610) at a density of 1,000 or 2,000 cells per well in 100 μL of culture medium, and 100 μL of the corresponding culture medium without cells was added to the wells in column 12. The plate was then placed in a 37° C., 5% CO2 incubator for 24 hours. • (3) The compound of the present disclosure and the control drug fulvestrant (Selleck; Cat. No.: S1191) were then 4-fold serially diluted to 10 dose points starting at 10 μM. 10 μL of the serially diluted compound was pipetted and added to 100 μL of cells in columns 1 to 10, and 10 μL of the corresponding culture medium containing 0.33 v % DMSO was added to both columns 11 and 12. The plate was incubated in a 37° C., 5% CO2 incubator for 6 days or 72 hours (Note: column 11 was used as a MAX well with cells but without compound; column 12 was used as a MIN well without cells […]). • (4) The cell viability detection reagent in the CellTiter-Glo® assay kit was then added to the 96-well plate at 50 μL per well according to the instructions, and shaken on an orbital shaker in the dark for 5 to 10 minutes. The cell viability was then measured using a multifunctional microplate reader. Finally, the inhibition of cell proliferation by the compound of the present disclosure was plotted by XLFIT software, and the IC50 value (half inhibitory concentration) and the IH % max (maximum inhibition percentage) of the compound of the present disclosure were calculated.

MCF-7 ER^D538G = test: CellTiter-Glo cell proliferation inhibition, MCF-7 ER^D538G; conditions: Homo sapiens, MCF7, 144 h, MCF-7 ER^D538G (CTG), 6 days, starting concentration 10 μM; for inhibition at up to 10 µM: read-out: IH % max (maximum inhibition percentage)
How it was run: (§6)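 MCF-7, TamR-MCF-7, and CRISPR-edited MCF-7 ER D538G or Y537S cells were seeded at 1,000 or 2,000 cells/well in EMEM and cultured 24 h. They were then exposed to a 4-fold, 10-point series (top 10 µM before addition to wells) for 6 days or 72 h at 37 °C. CellTiter-Glo luminescence gave IC50 and maximum % inhibition.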

MCF-7 ER^Y537S = test: CellTiter-Glo cell proliferation inhibition, MCF-7 ER^Y537S; conditions: Homo sapiens, MCF7, 144 h, MCF-7 ER^Y537S (CTG), 6 days, starting concentration 10 μM; for inhibition at up to 10 µM: read-out: IH % max (maximum inhibition percentage)
Excerpt: as §1, §2, §3, §4, §5

MDA-MB-231 = test: CellTiter-Glo cell proliferation inhibition, MDA-MB-231; conditions: Homo sapiens, 144 h, MDA-MB-231 (CTG), 6 days, starting concentration 10 μM; for inhibition at up to 10 µM: read-out: IH % max (maximum inhibition percentage)
Excerpt: as §1, §2, §3, §4, §5
Compounds D64 to D69 were tested for MDA-MB-231 (CTG) and MDA-MB-468 (CTG) with an incubation time of 72 hours in the incubator.

MCF-7 = test: CellTiter-Glo cell proliferation inhibition, MCF-7 (Effect Example 2); conditions: Homo sapiens, MCF7, 144 h, MCF-7 (CTG), 6 days, starting concentration 10 μM; for inhibition at up to 10 µM: read-out: IH % max (maximum inhibition percentage)
How it was run: as §6

MDA-MB-468 = test: CellTiter-Glo cell proliferation inhibition, MDA-MB-468; conditions: Homo sapiens, 144 h, MDA-MB-468 (CTG), 6 days, starting concentration 10 μM; for inhibition at up to 10 µM: read-out: IH % max (maximum inhibition percentage)

IC50 (MCF-7 ER^D538G) [µM] | IC50 (MCF-7) [µM] | IC50 (TamR-MCF-7) [µM] | IC50 (MCF-7 ER^Y537S) [µM] | IC50 (MDA-MB-231) [µM] | IC50 (MDA-MB-468) [µM] | Structure (SMILES) | inhibition at up to 10 µM (TamR-MCF-7) [%] | inhibition at up to 10 µM (MCF-7 ER^D538G) [%] | inhibition at up to 10 µM (MCF-7 ER^Y537S) [%] | inhibition at up to 10 µM (MDA-MB-231) [%] | inhibition at up to 10 µM (MCF-7) [%] | inhibition at up to 10 µM (MDA-MB-468) [%]
0.448 | – | – | – | – | – | CCN(CCOCCOCCOc1ccc2c(c1)C(=O)N(C1CCC(=O)NC1=O)C2=O)CCOc1ccc(Oc2c(-c3ccc(S(C)(=O)=O)cc3)ccc3cc(O)ccc23)cc1 (stereo not shown) [Compound D24, 2-(2,6-dioxopiperidin-3-yl)-5-(2-(2-(2-(ethyl(2-(4-((6-hydroxy-2-(4-(methylsulfonyl)phenyl)naphthalen-1-yl)oxy)phenoxy)ethyl)amino)ethoxy)ethoxy)ethoxy)isoindoline-1,3-dione] | 60 | 93 | 94 | 100 | 74 | 62
– | – | – | – | – | – | CCN(CCOCCOc1cccc2c1C(=O)N(C1CCC(=O)NC1=O)C2=O)CCOc1ccc(Oc2c(-c3ccc(S(C)(=O)=O)cc3)ccc3cc(O)ccc23)cc1 (stereo not shown) [Compound D18, 2-(2,6-dioxopiperidin-3-yl)-4-(2-(2-(ethyl(2-(4-((6-hydroxy-2-(4-(methylsulfonyl)phenyl)naphthalen-1-yl)oxy)phenoxy)ethyl)amino)ethoxy)ethoxy)isoindoline-1,3-dione] | – | 81 | 67 | 41 | 39 | –
0.83 | – | – | – | – | – | CCN(CCOCCOCC(=O)N1CCN(c2cccc3c2CN(C2CCC(=O)NC2=O)C3=O)CC1)CCOc1ccc(Oc2c(-c3ccc(S(C)(=O)=O)cc3)ccc3cc(O)ccc23)cc1 (stereo not shown) [Compound D47] | – | 89 | 73 | 83 | 31 | 94
0.977 | 0.954 | – | – | – | – | CS(=O)(=O)c1ccc(-c2ccc3cc(O)ccc3c2Oc2ccc(OCCNCCCCCNc3cccc4c3C(=O)N(C3CCC(=O)NC3=O)C4=O)cc2)cc1 (stereo not shown) [Compound D60, 2-(2,6-dioxopiperidin-3-yl)-4-((5-((2-(4-((6-hydroxy-2-(4-(methylsulfonyl)phenyl)naphthalen-1-yl)oxy)phenoxy)ethyl)amino)pentyl)amino)isoindoline-1,3-dione] | 50 | 96 | 92 | 96 | 82 | 51
– | – | – | – | – | – | C[C@@H]1CN(CCOCC(=O)Nc2cccc3c2CN(C2CCC(=O)NC2=O)C3=O)[C@@H](C)CN1CCOc1ccc(Oc2c(-c3ccc(S(C)(=O)=O)cc3)ccc3cc(O)ccc23)cc1 (stereo partly drawn) [Compound D25, N-(2-(2,6-dioxopiperidin-3-yl)-1-oxoisoindolin-4-yl)-2-(2-((2S,5R)-4-(2-(4-((6-hydroxy-2-(4-(methylsulfonyl)phenyl)naphthalen-1-yl)oxy)phenoxy)ethyl)-2,5-dimethylpiperazin-1-yl)ethoxy)acetamide] | – | 86 | 59 | 53 | 62 | 96
0.0884 | 0.0277 | 0.0374 | 0.968 | 0.0051 | 0.0058 | CS(=O)(=O)c1ccc(-c2ccc3cc(O)ccc3c2Oc2ccc(OCCN3CCN(c4ccc5c(c4)CN(C4CCC(=O)NC4=O)C5=O)CC3)cc2)cc1 (stereo not shown) [Compound D2, 3-(5-(4-(2-(4-((6-hydroxy-2-(4-(methylsulfonyl)phenyl)naphthalen-1-yl)oxy)phenoxy)ethyl)piperazin-1-yl)-1-oxoisoindolin-2-yl)piperidine-2,6-dione] | 94 | 93 | 80 | 100 | 100 | 99
0.202 | – | – | – | – | – | CCN(CCOCCOCCN1CCN(c2ccc3c(c2)C(=O)N(C2CCC(=O)NC2=O)C3)CC1)CCOc1ccc(Oc2c(-c3ccc(S(C)(=O)=O)cc3)ccc3cc(O)ccc23)cc1 (stereo not shown) [Compound D49] | 42 | 96 | 86 | 97 | 42 | 99
0.23 | – | – | – | – | – | CCN(CCOCCOc1ccc2c(c1)C(=O)N(C1CCC(=O)NC1=O)C2=O)CCOc1ccc(Oc2c(-c3ccc(S(C)(=O)=O)cc3)ccc3cc(O)ccc23)cc1 (stereo not shown) [Compound D23, 2-(2,6-dioxopiperidin-3-yl)-5-(2-(2-(ethyl(2-(4-((6-hydroxy-2-(4-(methylsulfonyl)phenyl)naphthalen-1-yl)oxy)phenoxy)ethyl)amino)ethoxy)ethoxy)isoindoline-1,3-dione] | 64 | 94 | 96 | 100 | 73 | 79
– | – | – | – | – | – | CCN(CCNc1cccc2c1CN(C1CCC(=O)NC1=O)C2=O)CCOc1ccc(Oc2c(-c3ccc(S(C)(=O)=O)cc3)ccc3cc(O)ccc23)cc1 (stereo not shown) [Compound D17, 3-(4-((2-(ethyl(2-(4-((6-hydroxy-2-(4-(methylsulfonyl)phenyl)naphthalen-1-yl)oxy)phenoxy)ethyl)amino)ethyl)amino)-1-oxoisoindolin-2-yl)piperidine-2,6-dione] | 39 | 86 | 77 | 87 | 58 | –
